US10723741B1, “DNA polymerase IIIC inhibitors and use thereof” (Acurx Pharmaceuticals, LLC, priority 2018, dated 2020)
In brackets after ≈: the same amount, converted by molar mass. Read-outs that look alike come from different tables or passages of the source.

Legend:
Format in all cases: cell-based
[1] = system: Staphylococcus aureus ATCC 29213 (MSSA); test: Broth microdilution MIC, S. aureus ATCC 29213 (MSSA); details: broth microdilution, 37° C., 20 hours, read-out: MIC S. aureus ATCC 29213 (MSSA)
Outline: (§1)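 Two-fold dilutions from 64 to 0.0625 μg/ml final, 1% DMSO, were inoculated at ~5.0×10^5 cfu/ml in the strain's test medium and kept 20 h at 37 °C in ambient atmosphere. Colonies were grown on MHA, with S. pneumoniae on blood agar under 5% CO2.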

[2] = system: Streptococcus pneumoniae ATCC 49619; test: Broth microdilution MIC, S. pneumoniae ATCC 49619; details: ATCC49619, broth microdilution, 37° C., 20 hours, read-out: MIC S. pneumoniae ATCC 49619
Outline: as §1

[3] = system: Bacillus subtilis ATCC 6633; test: Broth microdilution MIC, B. subtilis ATCC 6633; details: ATCC6633, broth microdilution, 37° C., 20 hours, read-out: MIC B. subtilis ATCC 6633
Outline: as §1

[4] = system: Enterococcus faecium ATCC 700221 (VRE); test: Broth microdilution MIC, E. faecium ATCC 700221 (VRE); parameters: MIC E. faecium ATCC 700221 (VRE): unit: ug/mL; details: broth microdilution, 37° C., 20 hours; for MIC: Enterococcus faecium
Outline: as §1

[5] = system: Escherichia coli ATCC 25922; test: Broth microdilution MIC, E. coli ATCC 25922 (MHIIB w & w/o 4 mM EDTA); details: broth microdilution, 37° C., 20 hours; for MIC: Escherichia coli, ATCC25922, without EDTA, read-out: MIC E. coli ATCC 25922; for MIC E. coli ATCC 25922 + 4 mM EDTA: with 4 mM EDTA
Outline: as §1

[6] = system: Enterococcus faecalis ATCC 29212; test: Broth microdilution MIC, E. faecalis ATCC 29212; details: ATCC29212, broth microdilution, 37° C., 20 hours, read-out: MIC E. faecalis ATCC 29212
Outline: as §1

[7] = system: Staphylococcus aureus NRS384 (MRSA); test: Broth microdilution MIC, S. aureus NRS384 (MRSA); parameters: MIC NRS 384 (MRSA): unit not given here; details: broth microdilution, 37° C., 20 hours; for MIC: Staphylococcus aureus
Outline: as §1

[8] = read-out: MIC E. faecium ATCC 700221 (VRE)
[9] = S. aureus NRS 384, read-out: MIC NRS 384 (MRSA)

MIC [1] [µg/mL] | MIC [2] [µg/mL] | MIC [3] [µg/mL] | MIC [4, 8] [µg/mL] | MIC [5] [µg/mL] | MIC E. coli ATCC 25922 + 4 mM EDTA [5] [µg/mL] | MIC [6] [µg/mL] | MIC ([7]; read-out: MIC NRS 384 (MRSA)) [µg/mL] | MIC E. faecium ATCC 700221 (VRE) [4] | MIC NRS 384 (MRSA) [7] | MIC [7, 9] [µg/mL] | MIC ([4]; MHIIB, read-out: MIC against E. faecium ATCC 700221 (VRE)) [µg/mL] | MIC ([7]; MHIIB, read-out: MIC against S. aureus NRS 384 (MRSA)) [µg/mL] | Structure (SMILES)
16 (≈ 34 µM) | > 64 | 4 (≈ 8.5 µM) | 4 (≈ 8.5 µM) | > 64 | >64 | 16 (≈ 34 µM) | 8 (≈ 17 µM) |  |  |  |  |  | COC(=O)COCCOCCn1ncc2nc(NCc3ccc(Cl)c(Cl)c3)[nH]c(=O)c21 [Compound 186, methyl 2-(2-(2-(5-((3,4-dichlorobenzyl)amino)-7-oxo-6,7-dihydro-1H-pyrazolo[4,3-d]pyrimidin-1-yl)ethoxy)ethoxy)acetate]
32 (≈ 84.6 µM) | 16 (≈ 42.3 µM) | 4 (≈ 10.6 µM) | 8 (≈ 21.1 µM) | > 64 | 8 | > 64 | 8 (≈ 21.1 µM) |  |  |  |  |  | O=c1[nH]c(NCc2ccc(Cl)c(Cl)c2)nc2cn(CC3CCC3)nc12 [Compound 135, 2-(Cyclobutylmethyl)-5-((3,4-dichlorobenzyl)amino)-2H-pyrazolo[4,3-d]pyrimidin-7(6H)-one]
4 (≈ 9.65 µM) | 4 (≈ 9.65 µM) | 1 (≈ 2.41 µM) |  | > 64 | >64 | 4 (≈ 9.65 µM) |  | 2/2 | 4/4 |  |  |  | O=c1[nH]c(NCc2ccc(Cl)c(Cl)c2)nc2cnn(CCSCCO)c12 [Compound 104, 5-((3,4-Dichlorobenzyl)amino)-1-(2-((2-hydroxyethyl)thio)ethyl)-1H-pyrazolo[4,3-d]pyrimidin-7(6H)-one]
> 64 | > 64 | > 64 | > 64 | > 64 | >64 | > 64 | > 64 |  |  |  |  |  | Cn1ncc2nc(NCc3cccc(Cl)c3Cl)[nH]c(=O)c21 [Compound 29, 5-((2,3-Dichlorobenzyl)amino)-1-methyl-1H-pyrazolo[4,3-d]pyrimidin-7(6H)-one]
16 | 8 | 4 | 4 | > 64 | >64 | 8 | 16 |  |  |  |  |  | Cl.O=C(c1cnc[nH]1)N1CCC(n2ncc3nc(NCc4ccc(Cl)c(Cl)c4)[nH]c(=O)c32)CC1 [Compound 270, 1-(1-(1H-imidazole-5-carbonyl)piperidin-4-yl)-5-((3,4-dichlorobenzyl)amino)-1H-pyrazolo[4,3-d]pyrimidin-7(6H)-one hydrochloride]
16 (≈ 40 µM) | 8 (≈ 20 µM) | 8 (≈ 20 µM) | 16 (≈ 40 µM) | > 64 | >64 | 32 (≈ 80 µM) |  |  |  | 16 (≈ 40 µM) |  |  | O=c1[nH]c(NCc2ccc(F)c(F)c2)nc2c(Cl)nn(CCOCCO)c12 [Compound 309, 3-Chloro-5-[(3,4-difluorophenyl)methylamino]-1-[2-(2-hydroxyethoxy)ethyl]-6H-pyrazolo[4,3-d]pyrimidin-7-one]
64 | 8 | 8 | 16 | > 64 | 64 | 32 | 32 |  |  |  |  |  | Cl.NC(=O)C1CCN(CCn2ncc3nc(NCc4ccc(Cl)c(Cl)c4)[nH]c(=O)c32)CC1 [Compound 66, 1-(2-(5-((3,4-Dichlorobenzyl)amino)-7-oxo-6,7-dihydro-1H-pyrazolo[4,3-d]pyrimidin-1-yl)ethyl)piperidine-4-carboxamide hydrochloride hydrochloride]
> 64 | 32 | 32 | 64 | > 64 | >64 | > 64 | > 64 |  |  |  |  |  | Cl.O=C([C@@H]1C[C@H](O)CN1)N1CCC(n2ncc3nc(NCc4ccc(Cl)c(Cl)c4)[nH]c(=O)c32)CC1 [Compound 278, 5-((3,4-dichlorobenzyl)amino)-1-(1-((2S,4S)-4-hydroxypyrrolidine-2-carbonyl)piperidin-4-yl)-1H-pyrazolo[4,3-d]pyrimidin-7(6H)-one hydrochloride]
> 64 | > 64 | > 64 | > 64 | > 64 | >64 | > 64 | > 64 |  |  |  |  |  | O=c1[nH]c(NCc2ccc(Cl)c(Cl)c2)nc2cn(Cc3ccccc3)nc12 [Compound 129, 2-Benzyl-5-((3,4-dichlorobenzyl)amino)-2H-pyrazolo[4,3-d]pyrimidin-7(6H)-one]
16 (≈ 37 µM) | 64 (≈ 148 µM) | 16 (≈ 37 µM) | 8 (≈ 18.5 µM) | > 64 | 64 | 16 (≈ 37 µM) | 16 (≈ 37 µM) |  |  |  |  |  | O=c1[nH]c(NCc2ccc(Cl)c(Cl)c2)nc2cnn(Cc3ccc(O)c(O)c3)c12 [Compound 189, 5-((3,4-dichlorobenzyl)amino)-1-(3,4-dihydroxybenzyl)-1H-pyrazolo[4,3-d]pyrimidin-7(6H)-one]
1 (≈ 2.59 µM) | 4 (≈ 10.4 µM) | 0.5 (≈ 1.29 µM) | 1 (≈ 2.59 µM) | > 64 | >64 | 2 (≈ 5.18 µM) |  |  |  | 1 (≈ 2.59 µM) | ≤ 1 | ≤ 1 | COCCn1nc(F)c2nc(NCc3ccc(Cl)c(Cl)c3)[nH]c(=O)c21 [Compound 305, 5-((3,4-Dichlorobenzyl)amino)-3-fluoro-1-(2-methoxyethyl)-1H-pyrazolo[4,3-d]pyrimidin-7(6H)-one]
> 64 | > 64 | > 64 | > 64 | > 64 | >64 | > 64 | > 64 |  |  |  |  |  | Cl.O=C(O)C1CC(n2ncc3nc(NCc4ccc(Cl)c(Cl)c4)[nH]c(=O)c32)CN1C(=O)c1ccncc1 (stereo not drawn) [Compound 150, 4-(5-((3,4-dichlorobenzyl)amino)-7-oxo-6,7-dihydro-1H-pyrazolo[4,3-d]pyrimidin-1-yl)-1-isonicotinoylpyrrolidine-2-carboxylic acid hydrochloride]
> 64 | 16 (≈ 36.5 µM) | 1 (≈ 2.28 µM) | 4 (≈ 9.13 µM) | > 64 | >64 | > 64 | > 64 |  |  |  |  |  | CC(C)OC(=O)CCCn1ncc2nc(NCc3ccc(Cl)c(Cl)c3)[nH]c(=O)c21 [Compound 206, isopropyl 4-(5-((3,4-dichlorobenzyl)amino)-7-oxo-6,7-dihydro-1H-pyrazolo[4,3-d]pyrimidin-1-yl)butanoate]
8 | 4 | 2 | 4 | > 64 | >64 | 8 |  |  |  | 8 |  |  | Cl.O=C(c1ccncc1)N1CCC(n2nc(F)c3nc(NCc4ccc(F)c(F)c4)[nH]c(=O)c32)CC1 [Compound 319, 5-((3,4-difluorobenzyl)amino)-3-fluoro-1-(1-isonicotinoylpiperidin-4-yl)-1H-pyrazolo[4,3-d]pyrimidin-7(6H)-one hydrochloride]
8 (≈ 16.9 µM) | 8 (≈ 16.9 µM) | 4 (≈ 8.45 µM) | 2 (≈ 4.22 µM) | > 64 | >64 | 8 (≈ 16.9 µM) | 4 (≈ 8.45 µM) |  |  |  |  |  | CC(C)(C)NS(=O)(=O)CCn1ncc2nc(NCc3ccc(Cl)c(Cl)c3)[nH]c(=O)c21 [Compound 238, N-(tert-butyl)-2-(5-((3,4-dichlorobenzyl)amino)-7-oxo-6,7-dihydro-1H-pyrazolo[4,3-d]pyrimidin-1-yl)ethanesulfonamide]
> 64 | 8 (≈ 15.7 µM) | 64 (≈ 126 µM) | > 64 | > 64 | >64 | > 64 | > 64 |  |  |  |  |  | O=C(NCCn1ncc2nc(NCc3ccc(Cl)c(Cl)c3)[nH]c(=O)c21)c1cc(Cl)nnc1O [Compound 83, 6-chloro-N-(2-(5-((3,4-dichlorobenzyl)amino)-7-oxo-6,7-dihydro-1H-pyrazolo[4,3-d]pyrimidin-1-yl)ethyl)-3-hydroxypyridazine-4-carboxamide]
32 | 16 | 16 | 16 | > 64 | >64 | 64 | 64 |  |  |  |  |  | Cl.O=C([C@@H]1C[C@@H](O)CN1)N1CCC(n2ncc3nc(NCc4ccc(Cl)c(Cl)c4)[nH]c(=O)c32)CC1 [Compound 274, 5-((3,4-dichlorobenzyl)amino)-1-(1-((2S,4R)-4-hydroxypyrrolidine-2-carbonyl)piperidin-4-yl)-1H-pyrazolo[4,3-d]pyrimidin-7(6H)-one hydrochloride]
